Publication PMC5742583, “A Functional Analysis on the Interspecies Interaction between Mouse LFA-1 and Human Intercellular Adhesion Molecule-1 at the Cell Level” (Frontiers in Immunology, 2017)
Where two headings read alike, the source gives them in different places.

How the values were obtained:
[1] = tested on: mouse B cells (ICAM-1/LFA-1 interaction); assay: Homotypic B cell aggregation assay; assay type: cell-based; settings: overnight 37°C, clumping index 1-10
Method: To obtain these cells, mice were sacrificed by cervical dislocation, the spleens were removed, and splenocytes were isolated and resuspended in RPMI 10% FBS at a final concentration of 10^6 cells/ml. Cells were treated with 10 µg/ml PHA and 1 µg/ml ionomycin to activate LFA-1 and incubated at 37°C 5% CO2 overnight in flat bottom 96-well plates (10^5 cells) in the presence of peptides from LFA-1 and c-Myc (control) 250 µM, D1D2, D1D2Fc, and human IgG1 10 µg, EGTA 1 mM and lovastatin 100 µM. A qualitative aggregation assay was carried out as described ([36], [41]) with a slight modification. Briefly, positive control stimulated cell samples were arbitrarily assigned a clumping index of 10 and lovastatin samples an index of 1. Test samples were ranked from 1 to 10 based upon degree of clumping relative to stimulated and lovastatin-treated samples. Results were verified by a blind independent rating performed by a second observer.
Fresh mouse B cells were obtained from splenocytes and stimulated with PHA and ionomycin to induce homotypic adhesion. The results were quantified by establishing a clumping index that represents the degree of cell aggregation, which reflects the inhibition efficiency (Figure 3B). Cell aggregation was ranked by a clumping index from 1 to 10 based on the degree of aggregation in comparison with the stimulated cells (positive control, clumping index = 10).
Figure 3 Effect of human (ICAM-1) on the aggregation of mouse spleen cells. (A) Splenocytes isolated from mice were non treated (a) or activated with PHA (b–i) as described in Section “Experimental Procedures” and further incubated overnight with (b) medium; (c) IgG1; (d) c-Myc peptide; (e) EGTA; (f) lovastatin; (g) D1D2; (h) D1D2Fc; (i) mouse LFA-1 peptide CD11a235–259. Images were taken with an optical microscope (original magnification, 10×). Representative images from two independent experiments with similar results are shown. (B) The graph represents the rate of agglutination depending on the inhibitory effect on ICAM-1/LFA-1 interaction. Cells stimulated with PHA and ionomycin, which served as a positive control, were arbitrarily assigned agglutination index 10, which represents a percentage of aggregation between 90 and 100%. Homotypic aggregation was classified from 1 to 10 depending on the degree of aggregation relative to cells stimulated. The result was verified by a second independent observer. Values are presented as mean ± SEM of two separate experiments performed by duplicate. Statistical analysis was performed using two-way analysis of variance with Bonferroni’s posttest comparing with c-Myc peptide control. *p < 0.05; ***p < 0.001.

ICAM-1/LFA-1 interaction = settings: cited from earlier work
Method: Human and mouse LFA-1-derived peptides (human: CD11a237–261; mouse: CD11a235–259) were purchased from GenScript (Piscataway, USA) without any modification. […] Besides, incubation cells with a mouse antiCD1 ...

Mac-1 = settings: ref [42], [43]; cited from earlier work
Description: (§1) In contrast, cell aggregates were clearly visible in cultures after stimulation (Figure 3A, b). […] Macrophage phenotype was confirmed by testing surface antigens by flow cytometry. Monocyte-derived macrophages expressed higher levels of HLA-DR and CD14 than undifferentiated monocytes ([51]). In addition, expression of CD54 (ICAM-1) was diminished in comparison with freshly isolated monocytes (Figure 6B). […] As shown ...

VLA-4 = settings: ref [42], [43]; cited from earlier work
Description: as §1

[2] = tested on: K562 cells killed by human NK cells (ICAM-1/LFA-1); assay: NK cell-mediated cytotoxicity on K562; assay type: cell-based; settings: peptide 250 µM, preincubation 45 min 37°C; effector:target 3:1, 4 h; annexin-V/7-AAD by FACS; vs c-Myc control; two experiments by duplicate
Method: The effect of human and mouse peptides derived from LFA-1 on ICAM-1/LFA-1 dependent cell–cell contact was analyzed by performing a cell cytotoxicity assay using human primary NK cells and the NK cell sensitive human leukemia K562. Primary activated human NK cells were generated by culturing PBMCs with mitomycin C inactivated R69 cells for 5 days and enriched by MACS using anti-CD56 antibodies as previously described ([39]). Cell cytotoxicity induced by NK cells on K562 was analyzed by flow cytometry as previously described ([39]). Briefly, K562 cells were preincubated with medium alone, in the presence of 250 µM of human and mouse peptides from LFA-1 or D1D2 (15 µg) for 45 min at 37°C. Then, NK cells were added at 3:1 effector:target cell ratio and incubated for 4 h at 37°C, 5% CO2. Subsequently, phosphatidylserine exposure and 7-AAD uptake were analyzed by FACS using the annexin-V/7-AAD kit from Immunostep. As a control, the cells were incubated alone with the inhibitors to evaluate their possible toxicity, which was not significant in any case.
Figure 4 Inhibition of natural killer (NK) cell-mediated cytotoxicity by human intercellular adhesion molecule-1. […] Cell death was analyzed by measuring translocation of PS by flow cytometry in the negative population for CFSE as described in experimental procedures. […]

D1D2Fc = target: T1, D1D2Fc (Homo sapiens, UniProt P05362); settings: peptide derived from human LFA-1, observed previously, ref [34], cited from earlier work
T1 construct: The synthetic first two domains of ICAM-1 alone (D1D2) or linked with human IgG1 Fc region (D1D2Fc) were expressed in Escherichia coli; made in house; host or cells: Escherichia coli
Description: In a previous work, we have shown that purified human recombinant ICAM-1 was able to interact with peptides derived from human LFA-1 ([34]). […] The complex formation was net exothermic as would be expected for a reaction in which specific intermolecular interactions are established. Besides, if there were no interaction, there would not be any signal. This value was obtained by fitting to the binding isotherm a 1:n interaction model, which assumes a single type of binding sites.

[3] = target: human ICAM-1 first two domains linked with human IgG1 Fc region (D1D2Fc) (human); assay: ITC; 150 µM peptide injected (28 injections of 10 µl) into 12 µM D1D2Fc in the cell, PBS, 25°C, VP-ITC; fitted with a 1:n interaction model with a single type of binding sites
[4] = tested on: gp33-pulsed EL4 cells killed by mouse Tc cells (ICAM-1/LFA-1); assay: CD8+ T cell-mediated cytotoxicity on EL4; assay type: cell-based; settings: ICAM-1 proteins, several (increasing) amounts, preincubation 45 min 37°C; effector:target 10:1, 4 h; annexin-V/7-AAD by FACS; three experiments by duplicate
human monocytes = assay: Human monocyte adhesion to plastic (MTT); assay type: cell-based; settings: human D1D2 and D1D2Fc, different concentrations, 37°C overnight, three experiments by duplicate
Method: (§2) Monocytes were isolated from human peripheral blood mononuclear cells (PBMCs), obtained from healthy donors (Blood and Tissue Bank of Aragon; approved by the CEICA, number: C.I.PI11/006) by density gradient centrifugation using Ficoll-Paque (GE healthcare). PBMCs were resuspended at a concentration of 2.5 × 10^6 cells/ml in RPMI medium supplemented with 1% heat-inactivated human AB serum (Sigma). Cells were cultured in a Petri dish for 2 h at 37°C 5% CO2. […]
(§3) Freshly isolated monocytes or differentiated macrophages were washed twice with PBS and incubated with trypsin (PAN Biotech) for 30 min at 37°C 5% CO2. […] Next day, every well was washed twice with PBS, complete RPMI medium was added and the number or adherent remaining cells was quantified by a MTT colorimetric test ([38]). […]
(§4) Figure 6 LFA-1 is involved in human macrophage adhesion. […] (B) Macrophage phenotype was analyzed by flow cytometry testing the expression of HL-DR, CD14, CD54, and CD11a. […] Subsequently, every well was washed twice with PBS to remove non-adherent cells and quantification of cell adhesion was carried out by MTT as described in Section “Experimental Procedures.” Values are presented as mean ± SEM of three independent experiments performed by duplicate. […]

human macrophages = assay: Human macrophage adhesion to plastic (MTT); assay type: cell-based; settings: human D1D2 and D1D2Fc, different concentrations, 37°C overnight, three experiments by duplicate
Method: as §2, §3, §4

T1 sequence (P05362 with tags, fused parts or gaps limits assumed): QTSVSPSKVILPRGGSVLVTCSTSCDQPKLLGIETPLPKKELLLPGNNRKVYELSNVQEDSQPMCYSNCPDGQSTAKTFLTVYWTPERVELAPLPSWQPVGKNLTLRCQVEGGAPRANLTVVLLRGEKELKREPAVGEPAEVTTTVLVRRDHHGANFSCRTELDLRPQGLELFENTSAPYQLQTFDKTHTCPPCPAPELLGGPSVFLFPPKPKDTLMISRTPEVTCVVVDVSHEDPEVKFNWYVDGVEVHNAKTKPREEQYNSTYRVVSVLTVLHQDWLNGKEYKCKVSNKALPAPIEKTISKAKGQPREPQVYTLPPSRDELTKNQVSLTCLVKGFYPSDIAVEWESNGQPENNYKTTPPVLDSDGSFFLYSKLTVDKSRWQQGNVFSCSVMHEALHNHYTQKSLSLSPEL

## O=C(O)CN(CCOCCOCCN(CC(=O)O)CC(=O)O)CC(=O)O [EGTA, reference compound]
[1]; EGTA 1 mM, splenocytes activated with PHA and ionomycin
  inhibition of B cell aggregation: inhibit completely the aggregation
ICAM-1/LFA-1 interaction; ref [42], [43]
  specific block of ICAM-1/LFA-1 interaction: specifically block ICAM-1/LFA-1 interaction
Mac-1
  effect on Mac-1: without affecting
VLA-4
  effect on VLA-4: without affecting

## ITDGEATDSGNIDAAKDIIRYIIGI [CD11a237–261, human LFA-1-derived peptide, purchased from GenScript without any modification]
[2]
  inhibition of NK cell-mediated cell death of K562: blocked NK cell-mediated cell death
D1D2Fc
  affinity for human ICAM-1 (D1D2Fc), in words: similar
D1D2Fc; listed as peptide of human LFA-1
  affinity for human ICAM-1 (D1D2Fc), in words: highest affinity
ICAM-1/LFA-1 interaction; ref [36]
  ability to block ICAM-1/LFA-1 interaction: ability to block ICAM-1/LFA-1 interaction

## ITDGEASDKGNISAAHDITRYIIGI [mouse LFA-1-derived peptide CD11a(235-259)]
[3]
  Kd: 70 nM

B1: Human ICAM-1: human ICAM-1 (D1D2Fc and D1D2) in this paper's tests; purified human ICAM-1 in ref [29] (protein, UniProt P05362 28-532, looked up)
Intercellular adhesion …: QTSVSPSKVILPRGGSVLVTCSTSCDQPKLLGIETPLPKKELLLPGNNRKVYELSNVQEDSQPMCYSNCPDGQSTAKTFLTVYWTPERVELAPLPSWQPVGKNLTLRCQVEGGAPRANLTVVLLRGEKELKREPAVGEPAEVTTTVLVRRDHHGANFSCRTELDLRPQGLELFENTSAPYQLQTFVLPATPPQLVSPRVLEVDTQGTVVCSLDGLFPVSEAQVHLALGDQRLNPTVTYGNDSFSAKASVSVTAEDEGTQRLTCAVILGNQSQETLQTVTIYSFPAPNVILTKPEVSEGTEVTVKCEAHPRAKVTLNGVPAQPLGPRAQLLLKATPEDNGRSFSCSATLEVAGQLIHKNQTRELRVLYGPRLDERDCPGNWTWPENSQQTPMCQAWGNPLPELKCLKDGTFPLPIGESVTVTRDLEGTYLCRARSTQGEVTRKVTVNVLSPRYEIVIITVVAAAVIMGTAGLSTYLYNRQRKIKKYRLQQAQKGTPMKPNTQATPP
[1]; protein 10 µg, splenocytes activated with PHA 10 µg/ml and ionomycin 1 µg/ml, two experiments by duplicate
  inhibition of B cell aggregation: significantly inhibited adhesion
[4]
  inhibition of Tc cell-mediated cell death of EL4: completely blocked cell death
Human monocytes
  inhibition of adhesion of human monocytes: completely inhibited
Human macrophages
  inhibition of adhesion of human macrophages: completely inhibited
